Results: publication PMC6155683, “Pharmacokinetics Studies of 12 Alkaloids in Rat Plasma after Oral Administration of Zuojin and Fan-Zuojin Formulas” (Molecules : A Journal of Synthetic Chemistry and Natural …, 2017)
Like-named read-outs stand apart in the source and are kept apart here.

Key:
[1] = jejunum vs ileum and colon; cited from earlier work
P-gp = conditions: cited from earlier work
[2] = cited from earlier work
[3] = PK study of the 12 alkaloids in rat plasma after oral administration of ZJ and FZJ extract (LC–MS/MS); format: in vivo
Description: The time schedule included 15 time-points and six rats were sampled at each time-point. All the rats were orally administered with ZJ extract (suspended in water) at a dose of 3.38 g/kg body weight (dosages of the 12 alkaloids were shown in Table S4), equivalent to crude drug dose of 12 g/kg body weight. Blood samples were collected from the suborbital vein of the rats at 10, 20, 30, 60, 90, 120, 180, 240, 300, 330, 360, 480, 720, 1440, 2160 min after administration, and centrifuged immediately at 5000 rpm for 10 min. The plasma samples were stored at −20 °C until analysis.
Similarly, the time schedule of other rats included 15 time-points and six rats were orally administered with FZJ extract at a dose of 3.76 g/kg body weight (also equivalent to crude drug dose of 12 g/kg body weight, Table S4). Blood samples were collected and treated as mentioned above in the PK study of ZJ extract.
PK parameters of the 12 alkaloids including AUC0→t, AUC0→∞, mean retention time (MRT0→t, MRT0→∞), and elimination half-life (t1/2) were calculated with non-compartmental method by DAS 2.0 software (Mathematical Pharmacology Professional Committee of China, Shanghai, China). Maximum plasma drug concentration (Cmax) and time to reach the maximum plasma drug concentration (Tmax) were observed directly from the detected C–T data. The results were expressed as arithmetic mean ± standard deviation (SD).

[4] = cited from earlier work; remark: listed apart in the source
[5] = Stability of analytes in rat plasma under storage conditions; format: physicochemical; conditions: n = 6; for Stability RE, 3 freeze-thaw cycles / Stability RE, 30 days at −20 °C: rat plasma; for Stability RE, processed samples' stability: room temperature 24 h
Description: The stabilities of analytes in plasma were assessed by analyzing the QC samples at three concentration levels under the following storage conditions: after three freeze (−20 °C)-thaw (room temperature) cycles; stored at −20 °C for 30 days, and comparing the results with those of freshly prepared QC samples. Stabilities of the processed samples at room temperature for 24 h were also assessed.

[6] = cited from earlier work; remark: listed apart in the source
Caco-2 cell monolayer = conditions: cited from earlier work

Structure (SMILES): COc1ccc2cc3[n+](cc2c1OC)CCc1cc2c(cc1-3)OCO2 [berberine]
- absorption rate constant (Ka) compared between intestinal sites [1]: greater than that at ileum and colon
- P-gp substrate (P-gp; not told): P-gp substrates
- absolute bioavailability [2]: less than 1%
- AUC(0-t) ([3]; 3.38 g/kg, rat plasma, oral ZJ extract, mean ± SD, n = 6, read-out: AUC0→t): 277 ± 50.1 ng·h/mL
- AUC(0-inf) ([3]; 3.38 g/kg, rat plasma, oral ZJ extract, mean ± SD, n = 6, read-out: AUC0→∞): 300 ± 55.3 ng·h/mL
- Cmax ([3]; 3.38 g/kg, rat plasma, oral ZJ extract, mean ± SD, n = 6, read-out: Cmax): 109 ± 48.3 ng/mL
- MRT last ([3]; 3.38 g/kg, rat plasma, oral ZJ extract, mean ± SD, n = 6, read-out: MRT0→t (converted)): 6.46 h
- MRT inf ([3]; 3.38 g/kg, rat plasma, oral ZJ extract, mean ± SD, n = 6, read-out: MRT0→∞ (converted)): 8.58 h
- half-life ([3]; 3.38 g/kg, rat plasma, oral ZJ extract, mean ± SD, n = 6, read-out: t1/2): 6.3 ± 3.24 h
- Tmax ([3]; 3.38 g/kg, rat plasma, oral ZJ extract, read-out: Tmax (converted)): 1.5 h
- AUC(0-t) ([3]; 3.76 g/kg, rat plasma, oral FZJ extract, mean ± SD, n = 6, read-out: AUC0→t): 48.1 ± 9.6 ng·h/mL
- AUC(0-inf) ([3]; 3.76 g/kg, rat plasma, oral FZJ extract, mean ± SD, n = 6, read-out: AUC0→∞): 50.2 ± 10.7 ng·h/mL
- Cmax ([3]; 3.76 g/kg, rat plasma, oral FZJ extract, mean ± SD, n = 6, read-out: Cmax): 23.7 ± 7.42 ng/mL
- MRT last ([3]; 3.76 g/kg, rat plasma, oral FZJ extract, mean ± SD, n = 6, read-out: MRT0→t (converted)): 4.07 h
- MRT inf ([3]; 3.76 g/kg, rat plasma, oral FZJ extract, mean ± SD, n = 6, read-out: MRT0→∞ (converted)): 4.68 h
- half-life ([3]; 3.76 g/kg, rat plasma, oral FZJ extract, mean ± SD, n = 6, read-out: t1/2): 2.22 ± 0.835 h
- Tmax ([3]; 3.76 g/kg, rat plasma, oral FZJ extract, read-out: Tmax (converted)): 3 h
- Tsec (time of the secondary peak in C–T curve) ([3]; rat plasma, oral FZJ extract): 30 min
- Csec (drug concentration of the secondary peak in C–T curve) ([3]; rat plasma, oral FZJ extract, mean ± SD, n = 6): 11.64 ± 7.28 ng/mL
- Tsec (time of the secondary peak in C–T curve) ([3]; rat plasma, oral ZJ extract): 300 min
- Csec (drug concentration of the secondary peak in C–T curve) ([3]; rat plasma, oral ZJ extract, mean ± SD, n = 6): 44.68 ± 21.28 ng/mL
- berberine existed as prototype ([4]; 0–36 h after intragastric administration): at least 56%
- berberine remained in the GI tract ([4]; at 36 h after intragastric administration): 24%
- Stability RE, 3 freeze-thaw cycles ([5]; high QC concentration): −14.86%
- Stability RE, 30 days at −20 °C ([5]; high QC concentration): −14.65%
- Stability RE, 3 freeze-thaw cycles ([5]; low QC concentration): 7.87%
- Stability RE, 30 days at −20 °C ([5]; low QC concentration): −8.36%
- Stability RE, 3 freeze-thaw cycles ([5]; medium QC concentration): −1.36%
- Stability RE, 30 days at −20 °C ([5]; medium QC concentration): −13.68%
- Stability RE, processed samples' stability ([5]; high QC concentration): −13.71%
- Stability RE, processed samples' stability ([5]; low QC concentration): 9.52%
- Stability RE, processed samples' stability ([5]; medium QC concentration): 4.57%
- primary elimination route in vivo [6]: renal excretion

Structure (SMILES): C[n+]1c2n(c(=O)c3ccccc31)CCc1c-2[nH]c2ccccc12 [dehydroevodiamine]
- Papp (Caco-2 cell monolayer): 12.6 ×10⁻⁶ cm/s
- Csec (drug concentration of the secondary peak in C–T curve) ([3]; rat, in vivo, po): 117.29 ± 45.45 ng/mL
- Tsec (time of the secondary peak in C–T curve) ([3]; rat, in vivo, po): 90 min
- AUC(0-inf) ([3]; rat, in vivo, po, 3.38 g/kg): 537 ± 55 ng·h/mL
- AUC(0-t) ([3]; rat, in vivo, po, 3.38 g/kg): 532 ± 57.8 ng·h/mL
- Cmax ([3]; rat, in vivo, po, 3.38 g/kg): 155 ± 27.9 ng/mL
- MRT inf ([3]; rat, in vivo, po, 3.38 g/kg): 4.71 h
- MRT last ([3]; rat, in vivo, po, 3.38 g/kg): 4.34 h
- Tmax ([3]; rat, in vivo, po, 3.38 g/kg): 4 h
- half-life ([3]; rat, in vivo, po, 3.38 g/kg): 3.21 ± 2.27 h
- AUC(0-inf) ([3]; rat, in vivo, po, 3.76 g/kg): 286 ± 24.1 ng·h/mL
- AUC(0-t) ([3]; rat, in vivo, po, 3.76 g/kg): 275 ± 23.2 ng·h/mL
- Cmax ([3]; rat, in vivo, po, 3.76 g/kg): 85.3 ± 13.4 ng/mL
- MRT inf ([3]; rat, in vivo, po, 3.76 g/kg): 5.96 h
- MRT last ([3]; rat, in vivo, po, 3.76 g/kg): 4.66 h
- Tmax ([3]; rat, in vivo, po, 3.76 g/kg): 1.5 h
- half-life ([3]; rat, in vivo, po, 3.76 g/kg): 5.03 ± 2.87 h
- Stability RE, 3 freeze-thaw cycles ([5]; high QC concentration): 5.86%
- Stability RE, 30 days at −20 °C ([5]; high QC concentration): 4.85%
- Stability RE, 3 freeze-thaw cycles ([5]; low QC concentration): 4.36%
- Stability RE, 30 days at −20 °C ([5]; low QC concentration): −6.34%
- Stability RE, 3 freeze-thaw cycles ([5]; medium QC concentration): 14.45%
- Stability RE, 30 days at −20 °C ([5]; medium QC concentration): −1.12%
- Stability RE, processed samples' stability ([5]; high QC concentration): −1.09%
- Stability RE, processed samples' stability ([5]; low QC concentration): −0.76%
- Stability RE, processed samples' stability ([5]; medium QC concentration): 4.78%

Structure (SMILES): c1c2c(cc3c1OCO3)-c1cc3ccc4c(c3c[n+]1CC2)OCO4 [coptisine]
- absorption rate constant (Ka) compared between intestinal sites [1]: better absorption rate at colon compared with jejunum
- P-gp substrate (P-gp): P-gp substrates
- Tsec (time of the secondary peak in C–T curve) ([3]; rat plasma, oral ZJ extract): 90 min
- Csec (drug concentration of the secondary peak in C–T curve) ([3]; rat, in vivo, po): 4.96 ± 2.29 ng/mL
- AUC(0-inf) ([3]; rat, in vivo, po, 3.38 g/kg): 71.6 ± 10.7 ng·h/mL
- AUC(0-t) ([3]; rat, in vivo, po, 3.38 g/kg): 68.7 ± 10.8 ng·h/mL
- Cmax ([3]; rat, in vivo, po, 3.38 g/kg): 14.1 ± 7.75 ng/mL
- MRT inf ([3]; rat, in vivo, po, 3.38 g/kg): 12.3 h
- MRT last ([3]; rat, in vivo, po, 3.38 g/kg): 10.7 h
- Tmax ([3]; rat, in vivo, po, 3.38 g/kg): 5 h
- half-life ([3]; rat, in vivo, po, 3.38 g/kg): 8.01 ± 1.92 h
- AUC(0-inf) ([3]; rat, in vivo, po, 3.76 g/kg): 11.8 ± 1.25 ng·h/mL
- AUC(0-t) ([3]; rat, in vivo, po, 3.76 g/kg): 11 ± 1.64 ng·h/mL
- Cmax ([3]; rat, in vivo, po, 3.76 g/kg): 4.78 ± 2.31 ng/mL
- MRT inf ([3]; rat, in vivo, po, 3.76 g/kg): 5.2 h
- MRT last ([3]; rat, in vivo, po, 3.76 g/kg): 4.18 h
- Tmax ([3]; rat, in vivo, po, 3.76 g/kg): 3 h
- half-life ([3]; rat, in vivo, po, 3.76 g/kg): 2.93 ± 1.22 h
- Stability RE, 3 freeze-thaw cycles ([5]; high QC concentration): 0.97%
- Stability RE, 30 days at −20 °C ([5]; high QC concentration): 0.65%
- Stability RE, 3 freeze-thaw cycles ([5]; low QC concentration): 6.92%
- Stability RE, 30 days at −20 °C ([5]; low QC concentration): −11.58%
- Stability RE, 3 freeze-thaw cycles ([5]; medium QC concentration): 5.77%
- Stability RE, 30 days at −20 °C ([5]; medium QC concentration): −8.99%
- Stability RE, processed samples' stability ([5]; high QC concentration): −8.19%
- Stability RE, processed samples' stability ([5]; low QC concentration): −10.47%
- Stability RE, processed samples' stability ([5]; medium QC concentration): −2.14%
